Measurements: patent US7205304B2, “Sulfonyl-Derivatives as novel inhibitors of histone deacetylase” (Janssen Pharmaceutica N.V., priority 2002, dated 2007)
≈ marks a conversion by molar mass, not a printed value. Each block holds one molecule with its values, some of them ahead of it.

Assays:
[1] = target: histone deacetylase (HeLa nuclear extracts); test: In vitro assay for inhibition of histone deacetylase; type: biochemical; settings: [3H]acetylated histone H4 peptide substrate
[2] = tested on: A2780 ovarian carcinoma cells; test: Antiproliferative activity on A2780 cells (MTT); type: cell-based, human; settings: Homo sapiens, A2780, 96 h, four days of incubation, read-out: Cellular activity pIC50 (converted)
In short: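 A2780 ovarian carcinoma cells were seeded at 1500 cells/well and exposed to compound for four days, with DMSO ≤0.1%. Viability was measured by MTT (2 h, 37° C) and expressed as a percentage of untreated controls after blank subtraction. Initial single-point testing was at 10^−6 M, then full curves gave pIC50.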

[3] = Kinetic solubility in aqueous media (nephelometry); type: physicochemical; settings: phosphate citrate buffer, pH 7.4, aqueous buffer, kinetic from dmso stock, phosphate citrate buffer pH 7.4, turbidity of three dilution steps; read-out: Solubility Score
In short: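 DMSO stock (5 mM) diluted in three consecutive steps into phosphate citrate buffer pH 7.4, in triplicate; turbidity of each dilution read by nephelometry immediately after the last step. Compounds ranked into 3 classes: score 3 if first dilution clear, 2 if first unclear but second clear.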

Enzyme activity pIC50 [1]: 6.833 | IC50 [2]: 2770 nM | solubility [3]: > 454 µM | melting point: 220 °C
SMILES: O=C(NO)c1cnc(N2CCN(S(=O)(=O)c3ccc4ccccc4c3)C(CO)C2)nc1 (stereo not shown) [Compound 121]

Enzyme activity pIC50 [1]: 7.107 | IC50 [2]: 206 nM | solubility [3]: > 454 µM | melting point: > 260 °C
SMILES: O=C(NO)c1cnc(N2CCN(S(=O)(=O)c3ccc(-c4cccc(CCO)c4)cc3)CC2)nc1 [Compound 129]

Enzyme activity pIC50 [1]: 5.215 | IC50 [2]: > 10000 nM | melting point: 225 °C
SMILES: O=C(NO)c1cnc(N2CCN(S(=O)(=O)c3ccc4ccccc4c3)CC2)nc1NO [Compound 119]

Enzyme activity pIC50 [1]: 6.491 | IC50 [2]: 1010 nM | solubility [3]: < 75.8 µM | melting point: > 260 °C
SMILES: O=C(NO)c1ccc(N2CCN(S(=O)(=O)c3ccc4ccccc4c3)CC2)nn1 [Compound 120]

Enzyme activity pIC50 [1]: <5 | IC50 [2]: 3880 nM | melting point: 226 °C
SMILES: O=C(Nc1ccc(N2CCN(S(=O)(=O)c3ccc4ccccc4c3)CC2)cc1)/C(Cc1ccccc1)=N/O [Compound 9]

Enzyme activity pIC50 [1]: <5 | IC50 [2]: > 10000 nM | solubility [3]: 75.8 to 454 µM (≈ 32.3 to 194 µg/mL) | melting point: 210 °C
SMILES: O=C(NO)Nc1ccc(N2CCN(S(=O)(=O)c3ccc4ccccc4c3)CC2)cc1 [Compound 4]

Enzyme activity pIC50 [1]: <5 | IC50 [2]: 8200 nM | melting point: 197 °C
SMILES: CCOc1nc(N2CCN(S(=O)(=O)c3ccc4ccccc4c3)CC2)ncc1C(=O)NO [Compound 12]

Enzyme activity pIC50 [1]: <5 | IC50 [2]: > 10000 nM | melting point: 252 °C
SMILES: Cn1cnc(C(=O)Nc2ccc(N3CCN(S(=O)(=O)c4ccc5ccccc5c4)CC3)cc2)c1 [Compound 5]

Enzyme activity pIC50 [1]: <5 | IC50 [2]: > 10000 nM | melting point: 200 °C
SMILES: CN(C)C(=O)c1ccc(N2CCN(S(=O)(=O)c3ccc4ccccc4c3)CC2)nn1 [Compound 113]

Enzyme activity pIC50 [1]: <5 | IC50 [2]: 442 nM | solubility [3]: < 75.8 µM | melting point: 238 °C
SMILES: Nc1ccccc1NC(=O)c1cnc(N2CCN(S(=O)(=O)c3ccc4ccccc4c3)CC2)nc1 [Compound 13]

Enzyme activity pIC50 [1]: 8.456 | IC50 [2]: 103 nM | solubility [3]: < 75.8 µM | melting point: 190.7 °C
SMILES: CN(C)Cc1ccccc1-c1ccc(S(=O)(=O)N2CCN(c3ncc(C(=O)NO)cn3)CC2)cc1 [Compound 126]

Enzyme activity pIC50 [1]: 7.99 | IC50 [2]: 75.5 nM | solubility [3]: < 75.8 µM
SMILES: O=C(NO)c1cnc(N2CCN(S(=O)(=O)c3ccc(-c4ccc(F)cc4)cc3)CC2)nc1 [Compound 178]

Enzyme activity pIC50 [1]: 7.06 | IC50 [2]: > 10000 nM | melting point: 166 °C
SMILES: O=C(NO)c1cnc(N2CCN(S(=O)(=O)c3ccc4ccccc4c3)C(C(=O)NO)C2)nc1 (stereo not shown) [Compound 122]

Enzyme activity pIC50 [1]: 8.766 | IC50 [2]: 63.8 nM | solubility [3]: > 454 µM
SMILES: CN(C)Cc1cccc(-c2ccc(S(=O)(=O)N3CCN(c4ncc(C(=O)NO)cn4)CC3)cc2)c1 [Compound 168]

Enzyme activity pIC50 [1]: 7.663 | IC50 [2]: 144 nM | solubility [3]: 75.8 to 454 µM (≈ 36 to 216 µg/mL)
SMILES: O=C(NO)c1cnc(N2CCN(S(=O)(=O)c3ccc(-c4ccc(F)cc4F)cc3)CC2)nc1 [Compound 107]

Enzyme activity pIC50 [1]: 7.316 | IC50 [2]: 242 nM | solubility [3]: > 454 µM
SMILES: COc1ccc(-c2ccc(S(=O)(=O)N3CCN(c4ncc(C(=O)NO)cn4)CC3)cc2)c(OC)c1 [Compound 99]

Enzyme activity pIC50 [1]: <5 | IC50 [2]: 2020 nM | melting point: 135 °C
SMILES: CN(C)c1nc(N2CCN(S(=O)(=O)c3ccc4ccccc4c3)CC2)ncc1C(=O)NO [Compound 115]

Enzyme activity pIC50 [1]: 7.561 | IC50 [2]: 440 nM | solubility [3]: < 75.8 µM
SMILES: O=C(NO)c1cnc(N2CCN(S(=O)(=O)c3ccc(-c4cccc5cccnc45)cc3)CC2)nc1 [Compound 111]

Enzyme activity pIC50 [1]: 7.332 | IC50 [2]: 107 nM | solubility [3]: 75.8 to 454 µM (≈ 35.6 to 213 µg/mL)
SMILES: COc1cccc(-c2ccc(S(=O)(=O)N3CCN(c4ncc(C(=O)NO)cn4)CC3)cc2)c1 [Compound 15]

Enzyme activity pIC50 [1]: 7.162 | IC50 [2]: 353 nM | solubility [3]: 75.8 to 454 µM (≈ 38.5 to 231 µg/mL)
SMILES: O=C(NO)c1cnc(N2CCN(S(=O)(=O)c3ccc(-c4cccc(C(F)(F)F)c4)cc3)CC2)nc1 [Compound 102]

Enzyme activity pIC50 [1]: 6.428 | IC50 [2]: 308 nM | solubility [3]: < 75.8 µM
SMILES: O=C(NO)c1cnc(N2CCN(S(=O)(=O)c3ccc(-c4ccc(Cl)c(Cl)c4)cc3)CC2)nc1 [Compound 177]

The remaining lines, values behind:

SMILES: O=C(NO)c1ccc(N2CCN(S(=O)(=O)c3ccc4ccccc4c3)CC2)cc1C(F)(F)F [Compound 11]
Enzyme activity pIC50 [1]: <5 | IC50 [2]: 1010 nM | melting point: 196 °C

SMILES: O=C(NO)c1cnc(N2CCN(S(=O)(=O)c3ccc(-c4ccccc4OCCN4CCCC4)cc3)CC2)nc1 (hydrate or solvate) [Co. No. 125]
melting point: 146.9 °C

SMILES: CC(=O)SCC(=O)c1ccc(N2CCN(S(=O)(=O)c3ccc4ccccc4c3)CC2)cc1 [Compound 10]
Enzyme activity pIC50 [1]: 6.7 | IC50 [2]: > 10000 nM | solubility [3]: < 75.8 µM | melting point: 179 °C

SMILES: O=C(NO)c1cnc(N2CCN(S(=O)(=O)c3ccc(-c4cccc(CCN5CCCC5)c4)cc3)CC2)nc1 [Co. No. 127]
melting point: 243 °C

SMILES: CN(C)Cc1sccc1-c1ccc(S(=O)(=O)N2CCN(c3ncc(C(=O)NO)cn3)CC2)cc1 [Co. No. 124]
melting point: 192 °C

SMILES: O=C(NO)c1cnc(N2CCN(S(=O)(=O)c3ccc(-c4cccc(CN5CCOCC5)c4)cc3)CC2)nc1 [Compound 167]
Enzyme activity pIC50 [1]: 7.579 | IC50 [2]: 108 nM | solubility [3]: > 454 µM

SMILES: O=C(NO)c1cnc(N2CCN(S(=O)(=O)c3ccc(-c4ccsc4CN4CCOCC4)cc3)CC2)nc1 [Compound 148]
Enzyme activity pIC50 [1]: 7.94 | IC50 [2]: 176 nM | solubility [3]: < 75.8 µM

SMILES: O=C(NO)c1cnc(N2CCN(S(=O)(=O)c3ccc(-c4ccccc4CN4CCOCC4)cc3)CC2)nc1 [Compound 158]
Enzyme activity pIC50 [1]: 7.784 | IC50 [2]: 446 nM | solubility [3]: 75.8 to 454 µM (≈ 40.8 to 245 µg/mL)

SMILES: CN1CCN(CCc2cccc(-c3ccc(S(=O)(=O)N4CCN(c5ncc(C(=O)NO)cn5)CC4)cc3)c2)CC1 [Compound 174]
Enzyme activity pIC50 [1]: 8.212 | IC50 [2]: 80.4 nM | solubility [3]: > 454 µM

SMILES: O=C(NO)c1ccc(N2CCN(S(=O)(=O)Cc3ccccc3)CC2)cc1 [Compound 73]
Enzyme activity pIC50 [1]: 6.212 | IC50 [2]: 3960 nM | solubility [3]: < 75.8 µM

SMILES: O=C(NO)c1ccc(N2CCN(S(=O)(=O)c3ccc(Br)cc3)CC2)cc1 [Compound 78]
Enzyme activity pIC50 [1]: 6.306 | IC50 [2]: 1250 nM | solubility [3]: 75.8 to 454 µM (≈ 33.4 to 200 µg/mL)

SMILES: O=C(NO)c1cnc(N2CCN(S(=O)(=O)c3ccc(-c4cccc(CN5CCCC5)c4)cc3)CC2)nc1 [Compound 171]
Enzyme activity pIC50 [1]: 8.45 | IC50 [2]: 47.1 nM | solubility [3]: > 454 µM

SMILES: O=C(NO)c1ccc(N2CCN(S(=O)(=O)c3ccc(Oc4ccccc4)cc3)CC2)cc1 [Compound 82]
Enzyme activity pIC50 [1]: 5.821 | IC50 [2]: 1080 nM | solubility [3]: > 454 µM

SMILES: CC(C)N(C)CCc1cccc(-c2ccc(S(=O)(=O)N3CCN(c4ncc(C(=O)NO)cn4)CC3)cc2)c1 [Compound 173]
Enzyme activity pIC50 [1]: 8.423 | IC50 [2]: 70.5 nM | solubility [3]: > 454 µM

SMILES: Cn1nc(C(F)(F)F)cc1-c1ccc(S(=O)(=O)N2CCN(c3ncc(C(=O)NO)cn3)CC2)s1 [Compound 94]
Enzyme activity pIC50 [1]: 7.497 | IC50 [2]: 218 nM | solubility [3]: 75.8 to 454 µM (≈ 39.2 to 235 µg/mL)

SMILES: CC(C)N(C)Cc1cccc(-c2ccc(S(=O)(=O)N3CCN(c4ncc(C(=O)NO)cn4)CC3)cc2)c1 [Compound 170]
Enzyme activity pIC50 [1]: 8.227 | IC50 [2]: 65.3 nM | solubility [3]: > 454 µM

SMILES: O=C(NO)c1ccc(NC(=O)N2CCN(S(=O)(=O)c3ccc4ccccc4c3)CC2)cc1 [Compound 8]
Enzyme activity pIC50 [1]: 7.587 | IC50 [2]: 2280 nM | solubility [3]: > 454 µM

SMILES: O=C(NO)c1ccc(N2CCN(S(=O)(=O)c3cccc4cccnc34)CC2)cc1 [Compound 71]
Enzyme activity pIC50 [1]: 6.449 | IC50 [2]: 2470 nM | solubility [3]: > 454 µM

SMILES: Cc1cc(C)cc(-c2ccc(S(=O)(=O)N3CCN(c4ncc(C(=O)NO)cn4)CC3)cc2)c1 [Compound 136]
Enzyme activity pIC50 [1]: 7.288 | IC50 [2]: 513 nM | solubility [3]: < 75.8 µM

SMILES: O=C(NO)c1cnc(N2CCN(S(=O)(=O)c3ccc(-c4cc(Cl)cc(Cl)c4)cc3)CC2)nc1 [Compound 176]
Enzyme activity pIC50 [1]: 6.513 | IC50 [2]: 828 nM | solubility [3]: 75.8 to 454 µM (≈ 38.5 to 231 µg/mL)

SMILES: O=C(NO)c1cnc(N2CCN(S(=O)(=O)c3ccc(-c4ccccn4)s3)CC2)nc1 [Compound 182]
Enzyme activity pIC50 [1]: 7.634 | IC50 [2]: 87.1 nM | solubility [3]: < 75.8 µM

SMILES: CN1CCN(Cc2sccc2-c2ccc(S(=O)(=O)N3CCN(c4ncc(C(=O)NO)cn4)CC3)cc2)CC1 [Compound 144]
Enzyme activity pIC50 [1]: 8.428 | IC50 [2]: 81.5 nM | solubility [3]: > 454 µM

SMILES: O=C(NO)c1cnc(N2CCN(S(=O)(=O)c3ccc(-c4ccc(C(F)(F)F)cc4)cc3)CC2)nc1 [Compound 185]
Enzyme activity pIC50 [1]: 6.417 | IC50 [2]: 160 nM | solubility [3]: < 75.8 µM

SMILES: CN(C)CC1CN(c2ncc(C(=O)NO)cn2)CCN1S(=O)(=O)c1ccc(-c2ccccc2)cc1 (stereo not shown) [Compound 143]
Enzyme activity pIC50 [1]: 7.002 | IC50 [2]: 1320 nM | solubility [3]: > 454 µM

SMILES: CN1CCN(Cc2cccc(-c3ccc(S(=O)(=O)N4CCN(c5ncc(C(=O)NO)cn5)CC4)cc3)c2)CC1 [Compound 169]
Enzyme activity pIC50 [1]: 8.338 | IC50 [2]: 72.4 nM | solubility [3]: > 454 µM

SMILES: O=C(NO)c1ccc(N2CCN(S(=O)(=O)c3cc(S(=O)(=O)c4ccccc4)cs3)CC2)cc1 [Compound 69]
Enzyme activity pIC50 [1]: 5.978 | IC50 [2]: > 10000 nM | solubility [3]: > 454 µM
